The MIC is the smallest concentration in the dilution series that meets the test's criterion for growth inhibition.

Data on 3 compounds can be found in US20230193192A1 (priority 2021, published 2023).

Converted amounts (≈) assume the structure as drawn.

One series concerns NIH B38. Particulars: cited from earlier work.
A further series relates to LVS. Particulars: standard conditions; cited from earlier work.
In a further series the test system is F. novicida. It is filed as cell-based, Francisella novicida. Conditions: for MIC: pH 7.1.
The next series relates to F. tularensis LVS. It is filed as cell-based, Francisella tularensis holarctica Live Vaccine Strain. Particulars: for MIC: pH 7.1.
In another series the test system is Francisella philomiragia. It is filed as cell-based.
Series [1] relates to Galleria mellonella (waxworm) larvae. Conditions: in vivo.
Series [2] deals with Francisella tularensis holarctica Live Vaccine Strain. Particulars: cited from earlier work.
Series [3] concerns Francisella novicida. Particulars: cited from earlier work.
In series [4] the test system is Francisella novicida. Conditions: cited from earlier work. This is another data set of the same source.
Series [5] concerns Francisella tularensis tularensis Schu4. Conditions: cited from earlier work.

`[H]/N=C(/N)N[C@H]1[C@H](O)[C@@H](O)[C@H](O[C@@H]2O[C@@H](C)[C@](O)(C=O)[C@H]2O[C@@H]2O[C@@H](CO)[C@H](O)[C@@H](O)[C@@H]2NC)[C@@H](N/C(N)=N\[H])[C@@H]1O` [Streptomycin, D-Streptamine, O-2-deoxy-2-(methylamino)-α-L-glucopyranosyl-(1->2)-O-5-deoxy-3-C-formyl-α-L-lyxofuranosyl-(1->4)-N1,N3-bis(aminoiminomethyl)-]: the MIC with NIH B38 is 0.25 µg/mL (≈ 0.43 µM); in the series with LVS, 0.38 µg/mL (≈ 0.653 µM).

Turning to Colistin, the “This study Colistin” value in the series on F. novicida is listed as around 1024; in the series with F. tularensis LVS, above 1024; in the series on Francisella philomiragia, above 1024. Further, the MIC was 1024 µg/mL in the series on F. novicida and above 1024 µg/mL in the series with F. tularensis LVS. Also, the “Toxicity, survival of waxworms” value in series [1] is on record as “killed the waxworms”. Moreover, in series [2], the “Kirby Bauer Colistin” value is recorded as 0 mm.

Turning to Polymyxin B, the figures for the “This study Polymyxin B” value with F. novicida, in the series on F. tularensis LVS and in the series on Francisella philomiragia were 256, 256 and 1024, respectively. Further, the minimal inhibitory concentration (MIC) against F. novicida is 256 µg/mL; in the series with F. tularensis LVS it was 256 µg/mL; in the series on Francisella novicida [3], 38 µg/mL. For the same compound, in [1], the “Toxicity, survival of waxworms” value was “killed the waxworms”. Moreover, the “Kirby Bauer Polymyxin B” value in the series with Francisella novicida [4] is 19 mm; in series [5], 10 mm.
